The record followed here is patent publication US20240270741A1 (Cogent Biosciences, Inc., priority 2023, published 2024).

Each structure is given as a SMILES string.

In one assay the target is FGFR2 (Homo sapiens, UniProt P21802). Nature of the assay: FGFR wild type enzyme assay (HTRF KinEASE-TK), FGFR2. Particulars: Enz FGFR2 (nM).
FGFR2, sequence (P21802 399-821 limits assumed): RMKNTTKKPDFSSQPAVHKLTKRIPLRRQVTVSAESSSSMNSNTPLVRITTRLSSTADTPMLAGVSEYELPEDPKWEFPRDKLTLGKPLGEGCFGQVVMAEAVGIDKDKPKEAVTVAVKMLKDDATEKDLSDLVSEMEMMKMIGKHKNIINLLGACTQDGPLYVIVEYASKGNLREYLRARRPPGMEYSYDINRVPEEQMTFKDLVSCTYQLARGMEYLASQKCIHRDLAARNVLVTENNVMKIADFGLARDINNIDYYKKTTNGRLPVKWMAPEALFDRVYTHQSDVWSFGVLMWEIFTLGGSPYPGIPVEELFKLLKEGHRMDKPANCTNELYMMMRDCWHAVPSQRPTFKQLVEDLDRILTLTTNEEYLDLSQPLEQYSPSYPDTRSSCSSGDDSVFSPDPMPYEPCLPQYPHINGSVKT
The molecule `CC(C)Sc1cc(-c2cnn([C@H]3CCCN(C[C@H](O)CO)C3)c2)cn2ncc(C#N)c12` [Example 88, 6-[1-[(3S)-1-[(2S)-2,3-dihydroxypropyl]-3-piperidyl]pyrazol-4-yl]-4-isopropylsulfanyl-pyrazolo[1,5-a]pyridine-3-carbonitrile] registered an IC50 of 1 nM.

On to `Cc1c(-c2cc(Sc3ccccc3F)c3c(C#N)cnn3c2)cnn1[C@H]1CCCNC1` [Example 134, 4-(2-fluorophenyl)sulfanyl-6-[5-methyl-1-[(3S)-3-piperidyl]pyrazol-4-yl]pyrazolo[1,5-a]pyridine-3-carbonitrile], for which the IC50 is 1 nM.

The same assay, now with this note: Enz FGFR2 (nM), FGFR2 wild type enzyme.
For the molecule `Cc1c(-c2cc(Sc3ccc(F)cc3C#N)c3c(C#N)cnn3c2)cnn1[C@H]1CC[C@@](C)(N(C)C)CC1` [Example 327, 4-((2-cyano-4-fluorophenyl)thio)-6-(1-((1s,4s)-4-(dimethylamino)-4-methylcyclohexyl)-5-methyl-1H-pyrazol-4-yl)pyrazolo[1,5-a]pyridine-3-carbonitrile], 0.5 nM corresponded to half-maximal inhibition (IC50). This lies in the sub-nanomolar range. Same read-out and setting: the figure for `CO[C@@H](C)CN1CCC(n2ncc(-c3cc(Sc4ccccc4C#N)c4c(C#N)cnn4c3)c2C)CC1` [Example 157, (S)-4-((2-cyanophenyl)thio)-6-(1-(1-(2-methoxypropyl)piperidin-4-yl)-5-methyl-1H-pyrazol-4-yl)pyrazolo[1,5-a]pyridine-3-carbonitrile] is 1 nM; for `Cc1c(-c2cc(Sc3ccc(F)cc3C#N)c3c(C#N)cnn3c2)cnn1C1CCN(C(C)C)CC1` [Example 330, 4-((2-cyano-4-fluorophenyl)thio)-6-(1-(1-isopropylpiperidin-4-yl)-5-methyl-1H-pyrazol-4-yl)pyrazolo[1,5-a]pyridine-3-carbonitrile] it is 1 nM; for `CN(C)[C@H]1CC[C@@H](n2cc(-c3cc(Sc4ncccc4F)c4c(C#N)cnn4c3)cn2)CC1` [Example 247, 6-(1-((1s,4s)-4-(dimethylamino)cyclohex-yl)-1H-pyrazol-4-yl)-4-((3-fluoropyridin-2-yl)thio)pyrazolo[1,5-a]pyridine-3-carbonitrile] it is 1 nM.

The same assay, now with this note: Enz FGFR2 (nM), FGFR2 wild type enzyme assay.
Take `CC(C)(O)CN1CC[C@H](n2cc(-c3cc(Sc4ncccc4F)c4c(C#N)cnn4c3)cn2)C1` [Example 477, (S)-4-((3-fluoropyridin-2-yl)thio)-6-(1-(1-(2-hydroxy-2-methylpropyl)pyrrolidin-3-yl)-1H-pyrazol-4-y)pyrazolo[1,5-a]pyridine-3-carbonitrile]: the 50% inhibitory concentration (IC50) turned out to be 1 nM. This lies in the single-digit nanomolar range.

In turn, `Cc1c(-c2cc(Sc3ccc(F)cc3C#N)c3c(C#N)cnn3c2)cnn1[C@H]1CC[C@H](N(C)CCO)CC1` [Example 391, 4-((2-cyano-4-fluorophenyl)thio)-6-(1-((1r,4r)-4-((2-hydroxyethyl)(methyl)ami-no)cyclohexyl)-5-methyl-1H-pyrazol-4-yl)pyrazolo[1,5-a]pyridine-3-carbonitrile] had an IC50 of 1 nM. On the same count and under the same terms, next, `CO[C@H](C)C(=O)N1CCC(n2cc(-c3cc(Sc4ccccc4C#N)c4c(C#N)cnn4c3)cn2)CC1` [Example 565, (R)-4-((2-cyanophenyl)thio)-6-(1-(1-(2-methoxypropanoyl)piperidin-4-yl)-1H-pyrazol-4-yl)pyrazolo[1,5-a]pyridine-3-carbonitrile]: 0.5 nM; `N#Cc1ccccc1Sc1cc(-c2cnn(CC[C@@H](O)CO)c2)cn2ncc(C#N)c12` [Example 650, (R)-4-((2-cyanophenyl)thio)-6-(1-(3,4-dihydroxybutyl)-1H-pyrazol-4-yl)pyrazolo[1,5-a]pyridine-3-carbonitrile]: 1 nM; `Cc1noc(N2CCC[C@H](n3ncc(-c4cc(Sc5ccc(F)cc5C#N)c5c(C#N)cnn5c4)c3C)C2)n1` [Example 455, 4-(2-cyano-4-fluoro-phenyl)sulfanyl-6-[5-methyl-1-[(3S)-1-(3-methyl-1,2,4-oxadiazol-5-yl)-3-piperidyl]pyrazol-4-yl]pyrazolo[1,5-a]pyridine-3-carbonitrile]: 2 nM.
